# From US20090111798A1, “5,6-DIHYDRO-1H-PYRIDIN-2-ONE COMPOUNDS” (priority 2006, published 2009)
# Structures can show the parent of a compound that is named as a salt.
# Target: NS5B polymerase (Hepatitis C virus genotype 1b, UniProt P26663)
# Assay: biochemical
# Settings: NS5B polymerase inhibition; 20 nM enzyme, 75 min at 28° C.
# Description: Compounds were tested for HCV polymerase inhibition. Assays were performed in a 96-well streptavidin-coated FlashPlate using 20 nM enzyme, 0.5μ Ci of [α-^33P]GTP, 0.6 μM GTP, and 250 nM 5′biotinylated oligo (rG13)/poly rC in 20 mM Tris-HCl, pH 7.5, 5 mM MgCl2, 5 mM dithiothreitol, 0.1 g/L bovine serum albumin, and 100 U/mL RNAse inhibitor. The reaction was stopped by aspiration after 75 min at 28° C. and the plate was washed several times. After washing and drying the plate, incorporated radioactivity was counted using a Microbeta scintillation counter. IC50 values were calculated relative to the uninhibited control and inhibition data were fitted to a 4-parameter IC50 equation.
# NS5B polymerase, sequence (P26663 2420-3010): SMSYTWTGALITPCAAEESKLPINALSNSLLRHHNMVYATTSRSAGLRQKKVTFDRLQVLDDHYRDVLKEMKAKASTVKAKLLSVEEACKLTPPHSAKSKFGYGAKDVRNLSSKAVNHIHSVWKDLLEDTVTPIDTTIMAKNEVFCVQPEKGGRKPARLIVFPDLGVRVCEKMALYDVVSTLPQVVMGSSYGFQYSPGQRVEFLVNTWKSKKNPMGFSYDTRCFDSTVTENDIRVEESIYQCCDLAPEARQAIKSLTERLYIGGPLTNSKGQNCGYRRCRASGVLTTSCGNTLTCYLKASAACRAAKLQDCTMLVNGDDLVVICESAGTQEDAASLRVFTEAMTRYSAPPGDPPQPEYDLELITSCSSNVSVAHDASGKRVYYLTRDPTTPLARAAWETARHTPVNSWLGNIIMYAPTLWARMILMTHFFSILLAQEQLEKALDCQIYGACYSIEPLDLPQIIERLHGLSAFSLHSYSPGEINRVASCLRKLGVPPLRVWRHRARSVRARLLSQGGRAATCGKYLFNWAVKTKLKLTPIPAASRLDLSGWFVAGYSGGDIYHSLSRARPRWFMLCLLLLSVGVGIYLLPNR
row,Structure (SMILES),IC50 [nM]
1,O=C1C(C2=NS(=O)(=O)c3ccccc3N2)=C(O)C2CCCC2N1Cc1ccc(F)cc1 (mixture of isomers) [Example 51],100 to 1000
2,"CS(=O)(=O)Nc1ccc2c(c1)S(=O)(=O)N=C(C1=C(O)[C@@H]3CCC[C@@H]3N(Cc3ccccn3)C1=O)N2 (relative stereo) [Example 4, cis-N-[3-(4-Hydroxy-2-oxo-1-pyridin-2-ylmethyl-2,4-a,5,6,7,7a-hexahydro-1H-[1]pyrindin-3-yl)-1,1-dioxo-1,4-dihydro-1λ^6-benzo[1,2,4]thiadiazin-7-yl]-methanesulfonamide]",100 to 1000
3,"CS(=O)(=O)Nc1ccc2c(c1)S(=O)(=O)N=C(C1=C(O)[C@@H]3CCC[C@@H]3N(Cc3ccc(F)cn3)C1=O)N2 (relative stereo) [Example 5, cis-N-{3-[1-(5-Fluoro-pyridin-2-ylmethyl)-4-hydroxy-2-oxo-2,4-a,5,6,7,7a-hexahydro-1H-[1]pyrindin-3-yl]-1,1-dioxo-1,4-dihydro-1λ^6-benzo[1,2,4]thiadiazin-7-yl}-methanesulfonamide]",100 to 1000
4,CN(C)CCN1C(=O)C(C2=NS(=O)(=O)c3cc(NS(C)(=O)=O)ccc3N2)=C(O)[C@@H]2CCC[C@@H]21 (relative stereo) [Example 6],1000 to 100000
5,"CS(=O)(=O)Nc1ccc2c(c1)S(=O)(=O)N=C(C1=C(O)[C@@H]3CCC[C@@H]3N(CCc3ccccc3)C1=O)N2 (relative stereo) [Example 9, cis-N-[3-(4-Hydroxy-2-oxo-1-phenethyl-2,4-a,5,6,7,7a-hexahydro-1H-[1]pyrindin-3-yl)-1,1-dioxo-1,4-dihydro-1λ^6-benzo[1,2,4]thiadiazin-7-yl]-methanesulfonamide]",100 to 1000
6,"CS(=O)(=O)Nc1ccc2c(c1)S(=O)(=O)N=C(C1=C(O)[C@@H]3CCC[C@@H]3N(C3CCCC3)C1=O)N2 (relative stereo) [Example 10, cis-N-[3-(1-Cyclopentyl-4-hydroxy-2-oxo-2,4-a,5,6,7,7a-hexahydro-1H-[1]pyrindin-3-yl)-1,1-dioxo-1,4-dihydro-1λ^6-benzo[1,2,4]thiadiazin-7-yl]-methanesulfonamide]",1000 to 100000
7,"CS(=O)(=O)Nc1ccc2c(c1)S(=O)(=O)N=C(C1=C(O)[C@@H]3CCC[C@@H]3N(CCC3CC3)C1=O)N2 (relative stereo) [Example 19, cis-N-{3-[2-Cyclopropylethyl-5-hydroxy-3-oxo-2-aza-bicyclo[4.3.0]non-4-en-4-yl]-1,1-dioxo-1,4-dihydro-1λ^6-benzo[1,2,4]thiadiazin-7-yl}-methanesulfonamide]",20 to 100
8,"NCCS(=O)(=O)Nc1ccc2c(c1)S(=O)(=O)N=C(C1=C(O)[C@@H]3CCC[C@@H]3N(Cc3ccc(F)cc3)C1=O)N2 (relative stereo) [Example 24, cis-2-Amino-ethanesulfonic acid {3-[1-(4-fluoro-benzyl)-4-hydroxy-2-oxo-2,4-a,5,6,7,7a-hexahydro-1H-[1]pyrindin-3-yl]-1,1-dioxo-1,4-dihydro-1λ^6 benzo[1,2,4]thiadiazin-7-yl}-amide]",20 to 100
9,"CS(=O)(=O)Nc1ccc2c(c1)S(=O)(=O)C=C(C1=C(O)[C@@H]3CCC[C@@H]3N(Cc3ccc(F)cc3)C1=O)N2 (relative stereo) [Example 25, cis-N-{3-[1-(4-Fluoro-benzyl)-4-hydroxy-2-oxo-2,4-a,5,6,7,7a-hexahydro-1H-[1]pyrindin-3-yl]-1,1-dioxo-1,4-dihydro-1λ^6-benzo[1,4]thiazin-7-yl}-methanesulfonamide]",20 to 100
10,"CS(=O)(=O)Nc1ccc2c(c1)S(=O)(=O)N=C(C1=C(O)[C@@H]3CC=CC[C@@H]3N(Cc3ccc(F)cc3)C1=O)N2 (relative stereo) [Example 37, cis-N-{3-[1-(4-Fluoro-benzyl)-4-hydroxy-2-oxo-1,2,4a,5,8,8a-hexahydro-quinolin-3-yl]-1,1-dioxo-1,4-dihydro-1λ^6 benzo[1,2,4]thiadiazin-7-yl}-methanesulfonamide]",20 to 100
11,"CN(C)N1C(=O)C(C2=NS(=O)(=O)c3cc(NS(C)(=O)=O)ccc3N2)=C(O)[C@@H]2CCC[C@@H]21 (relative stereo) [Example 38, cis-N-[3-(1-Dimethylamino-4-hydroxy-2-oxo-2,4-a,5,6,7,7a-hexahydro-1H-[1]pyrindin-3-yl)-1,1-dioxo-1,4-dihydro-1λ^6-benzo[1,2,4]thiadiazin-7-yl]-methanesulfonamide hydrochloride]",1000 to 100000
12,"CS(=O)(=O)Nc1ccc2c(c1)S(=O)(=O)N=C(C1=C(O)[C@@H]3CCC[C@@H]3N(NC3CCC3)C1=O)N2 (relative stereo) [Example 41, cis-N-[3-(1-Cyclobutylamino-4-hydroxy-2-oxo-2,4-a,5,6,7,7a-hexahydro-1H-[1]pyrindin-3-yl)-1,1-dioxo-1,4-dihydro-1λ^6-benzo[1,2,4]thiadiazin-7-yl]-methanesulfonamide trifluoroacetic acid salt]",20 to 100
13,"CS(=O)(=O)Nc1ccc2c(c1)S(=O)(=O)N=C(C1=C(O)[C@@H]3CCC[C@@H]3N(C3CCCCC3)C1=O)N2 (relative stereo) [Example 43, cis-N-[3-(1-Cyclohexyl-4-hydroxy-2-oxo-2,4-a,5,6,7,7a-hexahydro-1H-[1]pyrindin-3-yl)-1,1-dioxo-1,4-dihydro-1λ^6-benzo[1,2,4]thiadiazin-7-yl]-methanesulfonamide]",100 to 1000
14,"CS(=O)(=O)Nc1ccc2c(c1)S(=O)(=O)N=C(C1=C(O)[C@@H]3CCC[C@@H]3N(CC3CCC3)C1=O)N2 (relative stereo) [Example 47, cis-N-[3-(1-Cyclobutylmethyl-4-hydroxy-2-oxo-2,4-a,5,6,7,7a-hexahydro-1H-[1]pyrindin-3-yl)-1,1-dioxo-1,4-dihydro-1λ^6-benzo[1,2,4]thiadiazin-7-yl]-methanesulfonamide]",20 to 100
15,"CS(=O)(=O)Nc1ccc2c(c1)S(=O)(=O)N=C(C1=C(O)[C@@H]3CCC[C@@H]3N(c3ccccc3)C1=O)N2 (relative stereo) [Example 48, cis-N-[3-(4-Hydroxy-2-oxo-1-phenyl-2,4-a,5,6,7,7a-hexahydro-1H-[1]pyrindin-3-yl)-1,1-dioxo-1,4-dihydro-1λ^6-benzo[1,2,4]thiadiazin-7-yl]-methanesulfonamide]",1000 to 100000
16,"CN1C(=O)C(C2=NS(=O)(=O)c3cc(NS(C)(=O)=O)ccc3N2)=C(O)[C@@H]2CCC[C@@H]21 (relative stereo) [Example 53, cis-N-[3-(4-Hydroxy-1-methyl-2-oxo-2,4a,5,6,7,7a-hexahydro-1H-[1]pyrindin-3-yl)-1,1-dioxo-1,4-dihydro-1λ^6-benzo[1,2,4]thiadiazin-7-yl]-methanesulfonamide]",1000 to 100000
17,"CCN1C(=O)C(C2=NS(=O)(=O)c3cc(NS(C)(=O)=O)ccc3N2)=C(O)[C@@H]2CCC[C@@H]21 (relative stereo) [Example 54, cis-N-[3-(1-Ethyl-4-hydroxy-2-oxo-2,4a,5,6,7,7a-hexahydro-1H-[1]pyrindin-3-yl)-1,1-dioxo-1,4-dihydro-1λ^6-benzo[1,2,4]thiadiazin-7-yl]-methanesulfonamide]",100 to 1000

# More lines, now with the values ahead:
row,IC50 [nM],Structure (SMILES)
1,20 to 100,"O=C1C(C2=NS(=O)(=O)c3cc(C4CCCS4(=O)=O)ccc3N2)=C(O)[C@@H]2CCC[C@@H]2N1Cc1ccc(F)cc1 (mixture of isomers) [Example 45, (4aR,7aS)-3-[7-(1,1-Dioxo-tetrahydro-1λ^6-thiophen-2-yl)-1,1-dioxo-1,4-dihydro-1λ^6-benzo[1,2,4]thiadiazin-3-yl]-1-(4-fluoro-benzyl)-4-hydroxy-1,4a,5,6,7,7a-hexahydro-[1]pyrindin-2-one]"
2,20 to 100,"CS(=O)(=O)Nc1ccc2c(c1)S(=O)(=O)N=C(C1=C(O)C3CCCCCC3N(CCC3CC3)C1=O)N2 (mixture of isomers) [Example 58, N-{3-[1-(2-Cyclopropyl-ethyl)-4-hydroxy-2-oxo-2,4a,5,6,7,8,9,9a-octahydro-1H-cyclohepta[b]pyridin-3-yl]-1,1-dioxo-1,4-dihydro-1λ^6-benzo[1,2,4]thiadiazin-7-yl}-methanesulfonamide]"
3,< 20,"CS(=O)(=O)Nc1ccc2c(c1)S(=O)(=O)N=C(C1=C(O)[C@@H]3CCC[C@@H]3N(Cc3ccc(F)cc3)C1=O)N2 (relative stereo) [Example 1, cis-N-{3-[1-(4-Fluoro-benzyl)-4-hydroxy-2-oxo-2,4-a,5,6,7,7a-hexahydro-1H-[1]pyrindin-3-yl]-1,1-dioxo-1,4-dihydro-1λ^6-benzo[1,2,4]thiadiazin-7-yl}-methanesulfonamide]"
4,20 to 100,"CS(=O)(=O)Nc1ccc2c(c1)S(=O)(=O)N=C(C1=C(O)[C@@H]3CCC[C@@H]3N(Cc3ccccc3)C1=O)N2 (relative stereo) [Example 7, cis-N-[3-(1-Benzyl-4-hydroxy-2-oxo-2,4-a,5,6,7,7a-hexahydro-1H-[1]pyrindin-3-yl)-1,1-dioxo-1,4-dihydro-1λ^6-benzo[1,2,4]thiadiazin-7-yl]-methanesulfonamide]"
5,< 20,CS(=O)(=O)Nc1ccc2c(c1)S(=O)(=O)N=C(C1=C(O)[C@@H]3CCC[C@@H]3N(Cc3cccc(F)c3)C1=O)N2 (relative stereo) [Example 8]
6,< 20,"CC(C)CCN1C(=O)C(C2=NS(=O)(=O)c3cc(NS(C)(=O)=O)ccc3N2)=C(O)[C@H]2CCC[C@H]21 (relative stereo) [Example 17, cis-N-{3-[2-(3-Methylbutyl)-5-hydroxy-3-oxo-2-aza-bicyclo[4.3.0]non-4-en-4-yl]-1,1-dioxo-1,4-dihydro-1λ^6-benzo[1,2,4]thiadiazin-7-yl}-methanesulfonamide]"
7,< 20,"CC(C)(C)CCN1C(=O)C(C2=NS(=O)(=O)c3cc(NS(C)(=O)=O)ccc3N2)=C(O)[C@H]2CCC[C@H]21 (relative stereo) [Example 18, cis-N-{3-[2-(3,3-Dimethylbutyl)-5-hydroxy-3-oxo-2-aza-bicyclo[4.3.0]non-4-en-4-yl]-1,1-dioxo-1,4-dihydro-1λ^6-benzo[1,2,4]thiadiazin-7-yl}-methanesulfonamide]"
